Data taken from ChEMBL document CHEMBL1201862, “PubChem BioAssay data set” (2004).
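Growth conditions: 96-well plates. Treatment: test compound, 48 hours, 5 concentrations. Analysis: linear interpolation between bracketing concentrations; unreached endpoints set to highest concentration. Abbreviation: GI50, concentration required for 50% inhibition of growth.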 Activity calls are given as the source filed them. Cut-off read from the data, not from the text of the source: active = GI50 up to about 1.1 µM and inactive = higher.

Tests used:
Assay in all cases: growth of human tumour cells (NCI), 48 h
[1] = tested on: NCI-H522
[2] = tested on: Malme-3M
[3] = tested on: DMS-273
[4] = tested on: SK-MEL-28
[5] = tested on: SF-539
[6] = tested on: DMS-114
[7] = tested on: A549
[8] = tested on: SK-MEL-2
[9] = tested on: OVCAR-4
[10] = tested on: HOP-62
[11] = tested on: RPMI-8226
[12] = tested on: HCT-15
[13] = tested on: NCI-H226
[14] = tested on: ACHN
[15] = tested on: OVCAR-5
[16] = tested on: SK-MEL-5
[17] = tested on: SW-620
[18] = tested on: SNB-75
[19] = tested on: SN12C
[20] = tested on: SF-295
[21] = tested on: SNB-19
[22] = tested on: OVCAR-8
[23] = tested on: UACC-62
[24] = tested on: M19-MEL
[25] = tested on: K562
[26] = tested on: 786-0
[27] = tested on: KM-20L2
[28] = tested on: HT-29
[29] = tested on: UACC-257
[30] = tested on: A498
[31] = tested on: M14
[32] = tested on: LXFL 529
[33] = tested on: HCT-116
[34] = tested on: SK-OV-3
[35] = tested on: CAKI-1
[36] = tested on: EKVX
[37] = tested on: OVCAR-3
[38] = tested on: HCC 2998
[39] = tested on: NCI-H460
[40] = tested on: UO-31
[41] = tested on: SR
[42] = tested on: KM12
[43] = tested on: XF498
[44] = tested on: LOX IMVI
[45] = tested on: HL-60
[46] = tested on: SF-268
[47] = tested on: IGROV-1
[48] = tested on: U-251
[49] = tested on: MOLT-4
[50] = tested on: DLD-1
[51] = tested on: NCI-H23
[52] = tested on: SNB-78
[53] = tested on: COLO 205
[54] = tested on: RXF 393
[55] = tested on: CCRF-CEM
[56] = tested on: TK-10
[57] = tested on: HOP-92

N#CCCN(c1ccc(C=O)cc1)S(=O)(=O)c1ccccc1
GI50 [1]: > 100 µM (inactive) | GI50 [2]: > 100 µM (inactive) | GI50 [3]: > 100 µM (inactive) | GI50 [4]: > 100 µM (inactive) | GI50 [5]: > 100 µM (inactive) | GI50 [6]: > 100 µM (inactive) | GI50 [7]: > 100 µM (inactive) | GI50 [8]: > 100 µM (inactive) | GI50 [9]: > 100 µM (inactive) | GI50 [10]: > 100 µM (inactive) | GI50 [11]: > 100 µM (inactive) | GI50 [12]: > 100 µM | GI50 [13]: > 100 µM (inactive) | GI50 [14]: > 100 µM (inactive) | GI50 [15]: > 100 µM (inactive) | GI50 [16]: > 100 µM (inactive) | GI50 [17]: > 100 µM (inactive) | GI50 [18]: 61.9 µM (inactive) | GI50 [19]: > 100 µM (inactive) | GI50 [20]: > 100 µM (inactive) | GI50 [21]: > 100 µM (inactive) | GI50 [22]: > 100 µM (inactive) | GI50 [23]: > 100 µM (inactive) | GI50 [24]: > 100 µM (inactive) | GI50 [25]: > 100 µM (inactive) | GI50 [26]: > 100 µM (inactive) | GI50 [27]: > 100 µM (inactive) | GI50 [28]: > 100 µM (inactive) | GI50 [29]: > 100 µM (inactive) | GI50 [30]: > 100 µM (inactive) | GI50 [31]: > 100 µM (inactive) | GI50 [32]: > 100 µM (inactive) | GI50 [33]: > 100 µM (inactive) | GI50 [34]: > 100 µM (inactive) | GI50 [35]: > 100 µM (inactive) | GI50 [36]: > 100 µM (inactive) | GI50 [37]: > 100 µM (inactive) | GI50 [38]: > 100 µM (inactive) | GI50 [39]: > 100 µM (inactive) | GI50 [40]: > 100 µM (inactive) | GI50 [41]: > 100 µM (inactive) | GI50 [42]: > 100 µM (inactive) | GI50 [43]: > 100 µM (inactive) | GI50 [44]: > 100 µM (inactive) | GI50 [45]: > 100 µM (inactive) | GI50 [46]: > 100 µM (inactive) | GI50 [47]: > 100 µM (inactive) | GI50 [48]: > 100 µM (inactive) | GI50 [49]: > 100 µM (inactive)

Cc1cc(O)nc(CNC(=O)Cc2ccccc2)n1
GI50 [1]: > 100 µM (inactive) | GI50 [2]: > 100 µM (inactive) | GI50 [3]: > 100 µM (inactive) | GI50 [4]: > 100 µM (inactive) | GI50 [5]: > 100 µM (inactive) | GI50 [6]: > 100 µM (inactive) | GI50 [7]: > 100 µM (inactive) | GI50 [8]: > 100 µM (inactive) | GI50 [9]: > 100 µM (inactive) | GI50 [10]: > 100 µM (inactive) | GI50 [11]: > 100 µM (inactive) | GI50 [12]: > 100 µM | GI50 [13]: > 100 µM (inactive) | GI50 [14]: > 100 µM (inactive) | GI50 [15]: > 100 µM (inactive) | GI50 [17]: > 100 µM (inactive) | GI50 [18]: > 100 µM (inactive) | GI50 [19]: > 100 µM (inactive) | GI50 [20]: > 100 µM (inactive) | GI50 [21]: > 100 µM (inactive) | GI50 [22]: > 100 µM (inactive) | GI50 [23]: > 100 µM (inactive) | GI50 [24]: > 100 µM (inactive) | GI50 [25]: > 100 µM (inactive) | GI50 [26]: > 100 µM (inactive) | GI50 [27]: > 100 µM (inactive) | GI50 [28]: > 100 µM (inactive) | GI50 [29]: > 100 µM (inactive) | GI50 [50]: > 100 µM (inactive) | GI50 [30]: > 100 µM (inactive) | GI50 [51]: > 100 µM (inactive) | GI50 [52]: > 100 µM (inactive) | GI50 [53]: > 100 µM (inactive) | GI50 [31]: > 100 µM (inactive) | GI50 [54]: > 100 µM (inactive) | GI50 [55]: > 100 µM (inactive) | GI50 [32]: > 100 µM (inactive) | GI50 [34]: > 100 µM (inactive) | GI50 [35]: > 100 µM (inactive) | GI50 [36]: > 100 µM (inactive) | GI50 [37]: > 100 µM (inactive) | GI50 [38]: > 100 µM (inactive) | GI50 [56]: > 100 µM (inactive) | GI50 [39]: > 100 µM (inactive) | GI50 [40]: > 100 µM (inactive) | GI50 [57]: > 100 µM (inactive) | GI50 [42]: > 100 µM (inactive) | GI50 [43]: > 100 µM (inactive) | GI50 [44]: > 100 µM (inactive) | GI50 [45]: > 100 µM (inactive) | GI50 [46]: > 100 µM (inactive) | GI50 [47]: > 100 µM (inactive) | GI50 [49]: > 100 µM (inactive)
